ChEMBL document CHEMBL3046557, “Synthesis, biological evaluation, and molecular modeling studies of novel heterocyclic compounds as anti-proliferative agents” (2013)

What was measured:
Type in all cases: functional
UO-31 = assay: Cytotoxicity against human UO31 after 48 hrs by SRB assay; details: UO-31, 48 h
TK-10 = assay: Cytotoxicity against human TK10 after 48 hrs by SRB assay; details: TK-10, 48 h
UACC-257 = assay: Cytotoxicity against human UACC257 after 48 hrs by SRB assay; details: UACC-257, 48 h
MDA-MB-231 = assay: Cytotoxicity against human MDA-MB-231 after 48 hrs by SRB assay; details: MDA-MB-231, 48 h
NCI-H522 = assay: Cytotoxicity against human NCI-H522 after 48 hrs by SRB assay; details: NCI-H522, 48 h
SF-268 = assay: Cytotoxicity against human SF268 after 48 hrs by SRB assay; details: SF-268, 48 h
SW-620 = assay: Cytotoxicity against human SW620 after 48 hrs by SRB assay; details: SW-620, 48 h
EKVX = assay: Cytotoxicity against human EKVX after 48 hrs by SRB assay
CAKI-1 = assay: Cytotoxicity against human Caki1 after 48 hrs by SRB assay; details: CAKI-1, 48 h
OVCAR-3 = assay: Cytotoxicity against human OVCAR3 after 48 hrs by SRB assay; details: OVCAR-3, 48 h
MDA-MB-435 = assay: Cytotoxicity against human MDA-MB-435 after 48 hrs by SRB assay; details: MDA-MB-435, 48 h
RXF 393 = assay: Cytotoxicity against human RXF393 after 48 hrs by SRB assay; details: RXF 393, 48 h
A549 = assay: Cytotoxicity against human A549 after 48 hrs by SRB assay; details: A549, 48 h
UACC-62 = assay: Cytotoxicity against human UACC62 after 48 hrs by SRB assay; details: UACC-62, 48 h
K562 = assay: Cytotoxicity against human K562 after 48 hrs by SRB assay; details: K562, 48 h
SK-MEL-5 = assay: Cytotoxicity against human SK-MEL-5 after 48 hrs by SRB assay; details: SK-MEL-5, 48 h
HCT-116 = assay: Cytotoxicity against human HCT116 after 48 hrs by SRB assay; details: HCT-116, 48 h
SR = assay: Cytotoxicity against human SR after 48 hrs by SRB assay
T47D = assay: Cytotoxicity against human T47D after 48 hrs by SRB assay
NCI-H322M = assay: Cytotoxicity against human NCI-H322M after 48 hrs by SRB assay
NCI-H460 = assay: Cytotoxicity against human NCI-H460 after 48 hrs by SRB assay; details: NCI-H460, 48 h
CCRF-CEM = assay: Cytotoxicity against human CCRF-CEM after 48 hrs by SRB assay
COLO 205 = assay: Cytotoxicity against human COLO205 after 48 hrs by SRB assay; details: COLO 205, 48 h
ACHN = assay: Cytotoxicity against human ACHN after 48 hrs by SRB assay
SNB-75 = assay: Cytotoxicity against human SNB75 after 48 hrs by SRB assay; details: SNB-75, 48 h
KM12 = assay: Cytotoxicity against human KM12 after 48 hrs by SRB assay; details: KM12, 48 h
LOX IMVI = assay: Cytotoxicity against human LOXIMVI after 48 hrs by SRB assay
MOLT-4 = assay: Cytotoxicity against human MOLT4 after 48 hrs by SRB assay; details: MOLT-4, 48 h
SNB-19 = assay: Cytotoxicity against human SNB19 after 48 hrs by SRB assay; details: SNB-19, 48 h
BT-549 = assay: Cytotoxicity against human BT549 after 48 hrs by SRB assay; details: BT-549, 48 h
PC-3 = assay: Cytotoxicity against human PC3 after 48 hrs by SRB assay; details: PC-3, 48 h
OVCAR-8 = assay: Cytotoxicity against human OVCAR8 after 48 hrs by SRB assay; details: OVCAR-8, 48 h
NCI-H226 = assay: Cytotoxicity against human NCI-H226 after 48 hrs by SRB assay; details: NCI-H226, 48 h
M14 = assay: Cytotoxicity against human M14 after 48 hrs by SRB assay; details: M14, 48 h
U-251 = assay: Cytotoxicity against human U251 after 48 hrs by SRB assay; details: U-251, 48 h
786-0 = assay: Cytotoxicity against human 786-0 after 48 hrs by SRB assay; details: 786-0, 48 h
Hs-578T = assay: Cytotoxicity against human Hs 578T after 48 hrs by SRB assay
HT-29 = assay: Cytotoxicity against human HT-29 after 48 hrs by SRB assay; details: HT-29, 48 h
SK-MEL-28 = assay: Cytotoxicity against human SK-MEL-28 after 48 hrs by SRB assay; details: SK-MEL-28, 48 h
RPMI-8226 = assay: Cytotoxicity against human RPMI8226 after 48 hrs by SRB assay; details: RPMI-8226, 48 h
SK-OV-3 = assay: Cytotoxicity against human SKOV3 after 48 hrs by SRB assay; details: SK-OV-3, 48 h
HCC 2998 = assay: Cytotoxicity against human HCC2998 after 48 hrs by SRB assay; details: HCC 2998, 48 h
Malme-3M = assay: Cytotoxicity against human MALME-3M after 48 hrs by SRB assay
HOP-92 = assay: Cytotoxicity against human HOP92 after 48 hrs by SRB assay; details: HOP-92, 48 h
SF-539 = assay: Cytotoxicity against human SF539 after 48 hrs by SRB assay; details: SF-539, 48 h
NCI-H23 = assay: Cytotoxicity against human NCI-H23 after 48 hrs by SRB assay; details: NCI-H23, 48 h
SK-MEL-2 = assay: Cytotoxicity against human SK-MEL-2 after 48 hrs by SRB assay; details: SK-MEL-2, 48 h
OVCAR-4 = assay: Cytotoxicity against human OVCAR4 after 48 hrs by SRB assay; details: OVCAR-4, 48 h
SF-295 = assay: Cytotoxicity against human SF295 after 48 hrs by SRB assay; details: SF-295, 48 h
HCT-15 = assay: Cytotoxicity against human HCT15 after 48 hrs by SRB assay; details: HCT-15, 48 h
[1] = Cytotoxicity against human NCI-ADR-RES after 48 hrs by SRB assay
DU-145 = assay: Cytotoxicity against human DU145 after 48 hrs by SRB assay; details: DU-145, 48 h
HOP-62 = assay: Cytotoxicity against human HOP62 after 48 hrs by SRB assay; details: HOP-62, 48 h
OVCAR-5 = assay: Cytotoxicity against human OVCAR5 after 48 hrs by SRB assay; details: OVCAR-5, 48 h
SN12C = assay: Cytotoxicity against human SN12C after 48 hrs by SRB assay
MCF7 = assay: Cytotoxicity against human MCF7 after 48 hrs by SRB assay; details: MCF7, 48 h

CC12CCC(C(CN3C(=O)C(=O)c4ccccc43)C1=O)C2(C)C (configuration not stated)
GI50 (UO-31): 13.2 µM
TGI (UO-31): 26.2 µM
GI50 (TK-10): 14.8 µM
TGI (TK-10): 28.5 µM
GI50 (UACC-257): 13.9 µM
TGI (UACC-257): 31.1 µM
GI50 (MDA-MB-231): 15.1 µM
TGI (MDA-MB-231): 30 µM
GI50 (NCI-H522): 13.5 µM
TGI (NCI-H522): 29.4 µM
GI50 (SF-268): 15.8 µM
TGI (SF-268): 36 µM
GI50 (SW-620): 3.21 µM
TGI (SW-620): 9.25 µM
GI50 (EKVX): 19.6 µM
TGI (EKVX): 37.9 µM
GI50 (CAKI-1): 16.3 µM
TGI (CAKI-1): 31.3 µM
GI50 (OVCAR-3): 15.6 µM
TGI (OVCAR-3): 33.5 µM
GI50 (MDA-MB-435): 15.6 µM
TGI (MDA-MB-435): 32.9 µM
GI50 (RXF 393): 5.46 µM
TGI (RXF 393): 16.9 µM
GI50 (A549): 16.9 µM
TGI (A549): 32.9 µM
GI50 (UACC-62): 16.2 µM
TGI (UACC-62): 30.6 µM
GI50 (K562): 2.46 µM
TGI (K562): 8.2 µM
GI50 (SK-MEL-5): 17.3 µM
TGI (SK-MEL-5): 33 µM
GI50 (HCT-116): 1.95 µM
TGI (HCT-116): 3.76 µM
GI50 (SR): 1.53 µM
TGI (SR): 4.02 µM
GI50 (T47D): 20.6 µM
TGI (T47D): 46.7 µM
GI50 (NCI-H322M): 23.4 µM
TGI (NCI-H322M): 38.3 µM
GI50 (NCI-H460): 16.9 µM
TGI (NCI-H460): 36.5 µM
GI50 (CCRF-CEM): 7.46 µM
TGI (CCRF-CEM): 28.6 µM
GI50 (COLO 205): 12.6 µM
TGI (COLO 205): 29.2 µM
GI50 (ACHN): 16.2 µM
TGI (ACHN): 29.7 µM
GI50 (SNB-75): 17.1 µM
TGI (SNB-75): 33.1 µM
GI50 (KM12): 4.12 µM
TGI (KM12): 12.5 µM
GI50 (LOX IMVI): 10.4 µM
TGI (LOX IMVI): 24.5 µM
GI50 (MOLT-4): 3.51 µM
TGI (MOLT-4): 10.6 µM
GI50 (SNB-19): 13.8 µM
TGI (SNB-19): 26.6 µM
GI50 (BT-549): 12.3 µM
TGI (BT-549): 24.8 µM
GI50 (PC-3): 11.9 µM
TGI (PC-3): 25.9 µM
GI50 (OVCAR-8): 2.86 µM
TGI (OVCAR-8): 6.97 µM
GI50 (NCI-H226): 21.8 µM
TGI (NCI-H226): 61 µM
GI50 (M14): 15.9 µM
TGI (M14): 33.5 µM
GI50 (U-251): 15.4 µM
TGI (U-251): 29.3 µM
GI50 (786-0): 16.8 µM
TGI (786-0): 30.8 µM
GI50 (Hs-578T): 13.8 µM
TGI (Hs-578T): 32.6 µM
GI50 (HT-29): 5.45 µM
TGI (HT-29): 20.4 µM
GI50 (SK-MEL-28): 19.7 µM
TGI (SK-MEL-28): 39.5 µM
GI50 (RPMI-8226): 3.22 µM
TGI (RPMI-8226): 17.2 µM
GI50 (SK-OV-3): 14.8 µM
TGI (SK-OV-3): 28.5 µM
GI50 (HCC 2998): 13.5 µM
TGI (HCC 2998): 27.5 µM
GI50 (Malme-3M): 26.9 µM
TGI (Malme-3M): 44.8 µM
GI50 (HOP-92): 17.9 µM
TGI (HOP-92): 38.3 µM
GI50 (SF-539): 12.8 µM
TGI (SF-539): 25.8 µM
GI50 (NCI-H23): 14.5 µM
TGI (NCI-H23): 29.6 µM
GI50 (SK-MEL-2): 19 µM
TGI (SK-MEL-2): 41.7 µM
GI50 (OVCAR-4): 18.8 µM
TGI (OVCAR-4): 44.1 µM
GI50 (SF-295): 11.1 µM
TGI (SF-295): 24.3 µM
GI50 (HCT-15): 17.1 µM
TGI (HCT-15): 34.7 µM
GI50 [1]: 12.7 µM
TGI [1]: 35.3 µM
GI50 (DU-145): 14.9 µM
TGI (DU-145): 28.1 µM
GI50 (HOP-62): 15.6 µM
TGI (HOP-62): 30.1 µM
GI50 (OVCAR-5): 14.8 µM
TGI (OVCAR-5): 28.4 µM
GI50 (SN12C): 15.3 µM
TGI (SN12C): 31.6 µM
GI50 (MCF7): 5.8 µM
TGI (MCF7): 24.6 µM
